In patent publication US20220030868A1, “FUNGICIDAL HALOMETHYL KETONES AND HYDRATES” (FMC CORPORATION, priority 2018, published 2022):

Legend:
Phakopsora pachyrhizi = test: Test A: test suspension sprayed on soybean seedlings one day before inoculation with Phakopsora pachyrhizi spores (Asian soybean rust), visual disease rating; assay type: in vivo; conditions: 100 = 100% disease control, 0 = no control
Source text: General protocol for preparing test suspensions for Tests A-C: the test compounds were first dissolved in acetone in an amount equal to 3% of the final volume and then suspended at the desired concentration (in ppm) in acetone and purified water (50/50 mix by volume) containing 250 ppm of the surfactant PEG400 (polyhydric alcohol esters). The resulting test suspensions were then used in Tests A-C.
The test solution was sprayed to the point of run-off on soybean seedlings. The following day the seedlings were inoculated with a spore suspension of Phakopsora pachyrhizi (the causal agent of Asian soybean rust) and incubated in a saturated atmosphere at 22° C. for 24 h, and then moved to a growth chamber at 22° C. for 8 days, after which time visual disease ratings were made.
Results for Tests A-C are given in Table A. In the Table, a rating of 100 indicates 100% disease control and a rating of 0 indicates no disease control (relative to the controls). An asterisk “*” or a double asterisk “**” next to the rating value indicates a 50 ppm or 10 ppm test suspension was used, respectively. A dash (-) indicates the compound was not tested.

[1] = system: Puccinia recondita f. sp. tritici; test: Test B: test suspension sprayed on wheat seedlings one day before inoculation with Puccinia recondita f. sp. tritici spores (wheat leaf rust), disease rating; assay type: in vivo; conditions: 100 = 100% disease control, 0 = no control
Source text: General protocol for preparing test suspensions for Tests A-C: the test compounds were first dissolved in acetone in an amount equal to 3% of the final volume and then suspended at the desired concentration (in ppm) in acetone and purified water (50/50 mix by volume) containing 250 ppm of the surfactant PEG400 (polyhydric alcohol esters). The resulting test suspensions were then used in Tests A-C. The test solution was sprayed to the point of run-off on wheat seedlings. The following day the seedlings were inoculated with a spore suspension of Puccinia recondita f. sp. tritici (the causal agent of wheat leaf rust) and incubated in a saturated atmosphere at 20° C. for 24 h, and then moved to a growth chamber at 20° C. for 6 days, after which time disease ratings were made. Results for Tests A-C are given in Table A. In the Table, a rating of 100 indicates 100% disease control and a rating of 0 indicates no disease control (relative to the controls). An asterisk “*” or a double asterisk “**” next to the rating value indicates a 50 ppm or 10 ppm test suspension was used, respectively. A dash (-) indicates the compound was not tested.

Structure (SMILES)	Test A rating (disease control) (Phakopsora pachyrhizi; 10 ppm test suspension) [%]	Test B rating (disease control) ([1]; 10 ppm test suspension) [%]	other results
CCO/C(=C\Oc1cccc(Cn2cc(C(=O)OCC(C)=O)cn2)c1)C(F)(F)F [compound 337]	100	0	–
CCO/C(=C\Oc1ccc(CN2C(=O)c3ccccc3C2=O)cc1)C(F)(F)F [compound 184]	0	0	–
CCO/C(=C\Oc1ccc(CN)cc1)C(F)(F)F [compound 110]	–	–	Test A rating (disease control) (Phakopsora pachyrhizi; 50 ppm test suspension): 79%; Test B rating (disease control) ([1]; 50 ppm test suspension): 0%
CCOC(=O)c1cnn(Cc2ccc(CO/C=C(\OCC)C(F)(F)F)cc2)c1 [compound 167]	38	0	–
CC(C)OC(=O)c1cnn(Cc2ccc(OCC(O)(O)C(F)(F)F)cc2)c1 [Compound 39]	91	79	–
CCOC(=O)c1cnn(Cc2ccc(OCC3(C(F)(F)F)OC(=O)CS3)cc2)c1 (stereo not shown) [Compound 20]	98	86	–
CCOC(=O)c1cnn(Cc2ccc(O/C=C(\OCC(F)(F)F)C(F)(F)F)cc2)c1 [compound 298]	0	0	–
CCO/C(=C\Oc1ccc(Cn2cnc(C(=O)OC)n2)cc1)C(F)(F)F [Compound 123]	98	0	–
O=C(OCc1ccc(F)c(F)c1)c1cnn(Cc2ccc(OCC3(C(F)(F)F)OCCO3)cc2)c1 [compound 18]	100	0	–
O=C(NCC(F)(F)F)c1cnc(Cc2ccc(OCC(O)(O)C(F)(F)F)cc2)s1 [Compound 277]	50	45	–
CCS(=O)(=O)Cc1ccc(OCC(O)(O)C(F)(F)F)cc1 [Compound 29]	84	28	–
CCO/C(=C\Oc1ccc(Cn2nccc2C(=O)OC)cc1)C(F)(F)F [compound 250]	0	0	–
OC(O)(CCc1ccc(Cn2ccc3ccccc32)cc1)C(F)(F)F [Compound 30]	0	0	–
CCO/C(=C\Oc1ccc(Cn2cc(C#N)cn2)cc1)C(F)(F)F [compound 205]	0	0	–
CCOC(=O)C=CCOc1ccc(O/C=C(\OCC)C(F)(F)F)cc1 [compound 96]	13	0	–
O=C(OCc1ccc(Cl)c(Cl)c1)c1cnn(Cc2ccc(OCC3(C(F)(F)F)OCCO3)cc2)c1 [compound 17]	100	0	–
CCOC(=O)c1cnn(Cc2ccc(OCC3(C(F)(F)F)OCC(C)(C)O3)cc2)c1 (stereo not shown) [Compound 12, ethyl 1-[[4-[[4,4-dimethyl-2-(trifluoromethyl)-1,3-dioxolan-2-yl]methoxy]-phenyl]methyl]-1H-pyrazole-4-carboxylate]	–	–	pest or weed control at 10 ppm (Phakopsora pachyrhizi; Phakopsora pachyrhizi, 10 ppm test suspension): 13%; pest or weed control at 10 ppm ([1]; 10 ppm test suspension): 0%
O=Cc1ccc(OCC(O)(O)C(F)(F)F)cc1 [Compound 177]	–	–	Test A rating (disease control) (Phakopsora pachyrhizi; 50 ppm test suspension): 100%; Test B rating (disease control) ([1]; 50 ppm test suspension): 89%
CCO/C(=C\Oc1ccc(CNC(=O)C(C)OC)cc1)C(F)(F)F (stereo not shown) [compound 114]	–	–	Test A rating (disease control) (Phakopsora pachyrhizi; 50 ppm test suspension): 44%; Test B rating (disease control) ([1]; 50 ppm test suspension): 0%
CC(C)CS(=O)(=O)NCc1ccc(OCC2(C(F)(F)F)OCCO2)cc1 [compound 76]	0	0	–
O=C(NCC1CC1)c1cnc(Cc2ccc(OCC(O)(O)C(F)(F)F)cc2)s1 [Compound 256]	73	0	–

Structure (SMILES)	Test A rating (disease control) (Phakopsora pachyrhizi; 10 ppm test suspension) [%]	Test B rating (disease control) ([1]; 10 ppm test suspension) [%]	other results
C=CCO/C(=C\Oc1ccc(Cn2cc(C(=O)OCC)cn2)cc1)C(F)(F)F [compound 55]	0	0	–
O=C(NCc1ccc(OCC2(C(F)(F)F)OCCO2)cc1)c1cccc(C(F)(F)F)c1 [compound 179]	0	0	–
CCOC(=O)c1cnn(Cc2ccc(CCC3(C(F)(F)F)OCCO3)cc2)c1 [compound 67]	–	–	Test A rating (disease control) (Phakopsora pachyrhizi; 50 ppm test suspension): 65%; Test B rating (disease control) ([1]; 50 ppm test suspension): 0%
CCOC(=O)Cc1nnnn1Cc1ccc(O/C=C(\OCC)C(F)(F)F)cc1 [compound 84]	0	0	–
CCOC(=O)c1cnn(Cc2ccc(OCC(O)(O)C(F)(F)F)cc2)c1 [Compound 1, ethyl 1-[[4-(3,3,3-trifluoro-2,2-dihydroxypropoxy)phenyl]methyl]-1H-pyrazole-4-carboxylate]	–	–	pest or weed control at 250 ppm (Phakopsora pachyrhizi; Phakopsora pachyrhizi, 250 ppm test suspension): 100%; pest or weed control at 250 ppm ([1]; 250 ppm test suspension): 91%
CCC#CCOC(=O)c1ccn(Cc2ccc(O/C=C(\OCC)C(F)(F)F)cc2)n1 [compound 326]	100	0	–
O=C(NCC(F)(F)F)c1cnc(Cc2ccc(OCC3(C(F)(F)F)OCCO3)cc2)o1 [Compound 257]	54	0	–
CCOC(=O)c1ccnn1Cc1ccc(O/C=C(\OCC)C(F)(F)F)cc1 [compound 241]	0	0	–
COC(=O)c1cnn(Cc2ccc(OCC(O)(O)C(F)(F)F)cc2)c1 [Compound 37]	99	86	–
O=C(OCc1ccccn1)c1cnn(Cc2ccc(OCC3(C(F)(F)F)OCCO3)cc2)c1 [compound 199]	100	0	–
O=[N+]([O-])c1ccc(OCC(O)(O)C(F)(F)F)cc1 [Compound 280]	–	–	Test A rating (disease control) (Phakopsora pachyrhizi; 50 ppm test suspension): 100%; Test B rating (disease control) ([1]; 50 ppm test suspension): 100%
O=C(NCC(F)F)c1cnc(Cc2ccc(OCC(O)(O)C(F)(F)F)cc2)s1 [Compound 295]	–	–	Test A rating (disease control) (Phakopsora pachyrhizi; 50 ppm test suspension): 99%; Test B rating (disease control) ([1]; 50 ppm test suspension): 80%
CCO/C(=C\Oc1ccc(S(=O)(=O)N(C)C)cc1)C(F)(F)F [compound 61]	0	0	–
CCO/C(=C\Oc1ccc(Cn2cc(C(=O)NCC3CC3)cn2)cc1)C(F)(F)F [compound 117]	23	0	–
CCO/C(=C\Oc1ccc(Cc2nc(C(=O)NCC3CC3)cs2)cc1)C(F)(F)F [compound 130]	100	0	–
CCOC(=O)c1cnn(Cc2cccc(O/C=C(\OCC)C(F)(F)F)c2C)c1 [compound 303]	–	–	pest or weed control at 50 ppm (Phakopsora pachyrhizi; Phakopsora pachyrhizi, 50 ppm test suspension): 0%; pest or weed control at 50 ppm ([1]; 50 ppm test suspension): 0%
CCOC(=O)c1cnn(CCc2ccc(OCC3(C(F)(F)F)OCCO3)cc2)c1 [compound 133]	79	0	–
C=CCOC(=O)c1cnn(Cc2ccc(OCC3(C(F)(F)F)OCCO3)cc2)c1 [compound 188]	100	0	–
CCO/C(=C\Oc1ccc(CN2OCC(C)(C)C2=O)cc1)C(F)(F)F [compound 92]	0	0	–
CCO/C(=C\Oc1ccc(CN2CCC(C(=O)OC)CC2)cc1)C(F)(F)F [compound 309]	100	0	–
